Key:
[1] = Solubility of FK 235 in water; format: physicochemical
[2] = fasting state; S.E. 0.7 min.; cited from earlier work

| SMILES | solubility [1] [µg/mL] | half-time of the passage of fluid through pylorus [2] [min] |
| --- | --- | --- |
| COC(=O)C1=C(C#N)NC(C)=C(C(=O)OC(C)C)C1c1cccc([N+](=O)[O-])c1 (centres unmarked) [FK 235, Isopropyl 6-cyano-5-methoxycarbonyl-2-methyl-4-(3-nitrophenyl)-1,4-dihydropyridine-3-carboxylate] | < 2 | – |
| O [water] | – | 13.1 |
